Measurements: patent publication US9957263B2, “Bromodomain inhibitors” (AbbVie Inc., priority 2013, dated 2018)

Legend:
[1] = biological target: BRD4 (BDI_K57-E168) (Homo sapiens (Human), UniProt O60885); assay: TR-FRET bromodomain binding assay, BRD4 first bromodomain; conditions: His-tagged BD1, Alexa647-labeled probe 100 nM
Procedure: (§1) A time-resolved fluorescence resonance energy transfer (TR-FRET) assay was used to determine the affinities of compounds of the Examples listed in Table 1 for each bromodomain of BRD4. His-tagged first (BD1: amino acids K57-E168) and second (BD2: amino acids E352-E168) bromodomains of BRD4 were expressed and purified. An Alexa647-labeled BET-inhibitor was used as the fluorescent probe in the assay.
(§2) Compound dilution series were prepared in DMSO via a 3-fold serial dilution from 2.5 mM to 42 nM. Compounds were then diluted 6:100 in assay buffer (20 mM Sodium Phosphate, pH 6.0, 50 mM NaCl, 1 mM Ethylenediaminetetraacetic acid disodium salt dihydrate, 0.01% Triton X-100, 1 mM DL-Dithiothreitol) to yield 3× working solutions. Six microliters (μL) of the working solution was then transferred to white, low-volume assay plates (Costar #3673). A 1.5× assay mixture containing His-tagged bromodomain, Europium-conjugated anti-His antibody (Invitrogen PV5596) and the Alexa-647-conjugated probe molecule was also prepared. Twelve μL of this solution were added to the assay plate to reach a final volume of 18 μL. The final concentration of 1× assay buffer contains 2% DMSO, 50 μM-0.85 nM compound, 8 nM His-tagged bromodomain, 1 nM Europium-conjugated anti-His-tag antibody and 100 nM or 30 nM probe (for BDI or BDII, respectively). After a one-hour incubation at room temperature, TR-FRET ratios were determined using an Envision multilabel plate reader (Ex 340, Em […]).
(§3) TR-FRET data were normalized to the means of 24 no-compound controls (“high”) and 8 controls containing 1 μM un-labeled probe (“low”). Percent inhibition was plotted as a function of compound concentration and the data were fit with the 4 parameter logistic equation to obtain IC50s. Inhibition constants (Ki) were calculated from the IC50s, probe Kd and probe concentration. Typical Z′ values were between 0.65 and 0.75. The minimum significant ratio was determined to evaluate assay reproducibility (Eastwood et al., (2006) J Biomol Screen, 11: 253-261). The MSR was determined to be 2.03 for BDI and 1.93 for BDII, and a moving MSR (last six run MSR overtime) for both BDI and BDII was typically <3.

[2] = biological target: BRD4 (BDII_E352-M457) (Homo sapiens (Human), UniProt O60885); assay: TR-FRET bromodomain binding assay, BRD4 second bromodomain; conditions: His-tagged BD2, Alexa647-labeled probe 30 nM
Procedure: as §1, §2, §3

In the case of `CCS(=O)(=O)Nc1cc(-c2cn(C)c(=O)c3[nH]ccc23)c(Oc2ccc(F)cc2F)cc1C(=O)NC1CCOCC1` [Example 12, 5-(2,4-difluorophenoxy)-2-[(ethylsulfonyl)amino]-4-(6-methyl-7-oxo-6,7-dihydro-1H-pyrrolo[2,3-c]pyridin-4-yl)-N-(tetrahydro-2H-pyran-4-yl)benzamide], the Ki [1] is reported as 1.8 nM and the Ki [2] is reported as 1.6 nM.
`Cc1cc(C)n(C2CN(Cc3cc4c(-c5cc(S(C)(=O)=O)ccc5Oc5ccc(F)cc5F)cn(C)c(=O)c4[nH]3)C2)n1` [Example 129, 4-[2-(2,4-difluorophenoxy)-5-(methylsulfonyl)phenyl]-2-{[3-(3,5-dimethyl-1H-pyrazol-1-yl)azetidin-1-yl]methyl}-6-methyl-1,6-dihydro-7H-pyrrolo[2,3-c]pyridin-7-one] was tested, and the Ki [1] was 15.9 nM and the Ki [2] was 87 nM.
For `CN(C)c1cccc(CNc2cccc(Oc3ccc(S(C)(=O)=O)cc3-c3cn(C)c(=O)c4[nH]ccc34)c2)c1` [Example 75, 4-[2-(3-{[3-(dimethylamino)benzyl]amino}phenoxy)-5-(methylsulfonyl)phenyl]-6-methyl-1,6-dihydro-7H-pyrrolo[2,3-c]pyridin-7-one], the Ki [1] was 8.5 nM and the Ki [2] was 2.9 nM.
Work on `Cn1cc(-c2cc(S(C)(=O)=O)ccc2Oc2cccc(NS(=O)(=O)c3ccc(F)cc3Cl)c2)c2cc[nH]c2c1=O` [Example 58, 2-chloro-4-fluoro-N-{3-[2-(6-methyl-7-oxo-6,7-dihydro-1H-pyrrolo[2,3-c]pyridin-4-yl)-4-(methylsulfonyl)phenoxy]phenyl}benzenesulfonamide] yielded a Ki [1] of 4.7 nM and a Ki [2] of 2.4 nM.
For `Cn1cc(-c2cc(S(C)(=O)=O)ccc2Oc2cccc(C(=O)N3CCC(N4CCCC4)CC3)c2)c2cc[nH]c2c1=O` [Example 24, 6-methyl-4-[5-(methylsulfonyl)-2-(3-{[4-(pyrrolidin-1-yl)piperidin-1-yl]carbonyl}phenoxy)phenyl]-1,6-dihydro-7H-pyrrolo[2,3-c]pyridin-7-one], the Ki [1] was 15 nM and the Ki [2] was 12 nM.
For `Cn1cc(-c2cc(S(C)(=O)=O)ccc2Oc2cccc(NS(=O)(=O)c3ccc([N+](=O)[O-])cc3)c2)c2cc[nH]c2c1=O` [Example 43, N-{3-[2-(6-methyl-7-oxo-6,7-dihydro-1H-pyrrolo[2,3-c]pyridin-4-yl)-4-(methylsulfonyl)phenoxy]phenyl}-4-nitrobenzenesulfonamide], the Ki [1] was 5 nM and the Ki [2] was 3 nM.
`Cn1cc(-c2cc(S(C)(=O)=O)ccc2Oc2cccc(NCC3CCOC3)c2)c2cc[nH]c2c1=O` (centres unmarked) [Example 77, 6-methyl-4-[5-(methylsulfonyl)-2-{3-[(tetrahydrofuran-3-ylmethyl)amino]phenoxy}phenyl]-1,6-dihydro-7H-pyrrolo[2,3-c]pyridin-7-one] was tested, and the Ki [1] was 11 nM and the Ki [2] was 2.8 nM.
In the case of `CCNC(=O)c1cc2c(-c3cc(S(=O)(=O)CC)ccc3Oc3c(C)cccc3NCC3CCOC3)cn(C)c(=O)c2[nH]1` (centres unmarked) [Example 133, N-ethyl-4-[5-(ethylsulfonyl)-2-{2-methyl-6-[(tetrahydrofuran-3-ylmethyl)amino]phenoxy}phenyl]-6-methyl-7-oxo-6,7-dihydro-1H-pyrrolo[2,3-c]pyridine-2-carboxamide], the Ki [1] is reported as 2130 nM and the Ki [2] is reported as 20.3 nM.
With `CCS(=O)(=O)Nc1cc(-c2cn(C)c(=O)c3[nH]ccc23)c(Oc2ccc(F)cc2F)c(C2CC2)c1` [Example 15, N-[3-cyclopropyl-4-(2,4-difluorophenoxy)-5-(6-methyl-7-oxo-6,7-dihydro-1H-pyrrolo[2,3-c]pyridin-4-yl)phenyl]ethanesulfonamide] the Ki [1] was 4.6 nM and the Ki [2] was 2.6 nM.
`CN(C)c1cccc2c(S(=O)(=O)Nc3cccc(Oc4ccc(S(C)(=O)=O)cc4-c4cn(C)c(=O)c5[nH]ccc45)c3)cccc12` [Example 45, 5-(dimethylamino)-N-{3-[2-(6-methyl-7-oxo-6,7-dihydro-1H-pyrrolo[2,3-c]pyridin-4-yl)-4-(methylsulfonyl)phenoxy]phenyl}naphthalene-1-sulfonamide] showed a Ki [1] of 16 nM and a Ki [2] of 3.3 nM.
